Patent publication US20220347309A1, “PYRROLOBENZODIAZEPINE RESISTANCE” (ADC THERAPEUTICS SA, priority 2018, published 2022)
pIC50: −log10 of the molar value.

What was measured:
[1] = tested on: Karpas ADCr cells (ADCT-301 acquired resistant Karpas-299); experiment: MTS in vitro cytotoxicity, 96 h continuous exposure
Method: (§1) To generate a resistant population to either ADCT-301 or SG3199, human anaplastic large cell lymphoma Karpas-299 cells (expressing CD25) were incubated with an approximate IC50 dose of the drug for 96 hours. The cells were then washed and returned to fresh medium until normal cell growth was recovered. This process was repeated until a measurable and stable loss in cytotoxic efficacy was established using the MTS assay.
(§2) To measure the in vitro cytotoxicity with the MTS assay, cells were incubated with a 10-fold dilution range of ADCT-301 or SG3199, and incubated with continuous exposure for 96 hours (at least three cell doubling times under normal cell culture conditions). After incubation the […] AQueous One Solution Cell Proliferation Assay (MTS) was used to measure growth inhibition, by adding 20 μl reagent to the cells and incubating for 3-4 hours, then reading the absorbance at 492 nm. Mean % growth of the ADC or PBD treated cells was calculated relative to an untreated control.
(§3) To measure the cross-resistance of the Karpas ADCR cells to the SG3199 PBD warhead, and the PBDR cells to ADCT-301, the in vitro cytotoxicity assay was carried out as described above, treating the cells with the opposite drug molecule to the one with which they were generated.
(§4) To measure the cross-resistance of the Karpas ADCR and PBDR cells to the PBD dimer warhead SG2000, the in vitro cytotoxicity (MTS) assay was carried out as previously described in Example 2.

[2] = tested on: Karpas PBDr cells (SG3199 acquired resistant Karpas-299); experiment: as above
Method: as §1, §2, §3, §4

NCI-N87 wt cells [3] = experiment: MTS in vitro cytotoxicity, 144 h continuous exposure; assay type: cell-based, human; conditions: NCI-N87 wt, 144 h continuous exposure, mean; read-out: IC50
Method: To generate a resistant population to either ADCT-502 or SG3199, human gastric cancer NCI-N87 cells (expressing HER2) were incubated with an approximate IC50 dose of the drug for 144 hours. The cells were then washed and returned to fresh medium until normal cell growth was recovered. This process was repeated until a measurable and stable loss in cytotoxic efficacy was established using the MTS assay.
To measure the in vitro cytotoxicity with the MTS assay, cells were incubated with a 10-fold dilution range of ADCT-502 or SG3199, and incubated with continuous exposure for 144 hours (at least three cell doubling times under normal cell culture conditions). After incubation the CellTiter 960 AQueous One Solution Cell Proliferation Assay (MTS) was used to measure growth inhibition, by adding 20 μl reagent to the cells and incubating for 3-4 hours, then reading the absorbance at 492 nm. Mean % growth of the ADC or PBD treated cells was calculated relative to an untreated control.
To measure the cross-resistance of the NCI-N87 ADCR cells to the SG3199 PBD warhead, and the PBDR cells to ADCT-502, the in vitro cytotoxicity assay was carried out as described above, treating the cells with the opposite drug molecule to the one with which they were generated.

Karpas-299 wt cells [4] = experiment: DNA interstrand cross-linking, single cell gel electrophoresis (comet) assay; assay type: cell-based, human; conditions: 130 μM ADCT-301 or 280 μM SG3199 (figure legends: pM) for 2 hours, then 24 hours
Method: (§5) The formation of inter-strand cross-links (ICLs) by either ADCT-301 or SG3199 was measured using a modification of the single cell gel electrophoresis (comet) assay (Spanswick V J, Hartley J M, Hartley J A. Measurement of DNA interstrand crosslinking in individual cells using the Single Cell Gel Electrophoresis (Comet) assay. Methods Mol Biol. 613, 267-82 (2010)). Cells were treated with […] ADCT-301 or […] SG3199 for 2 hours, then washed and incubated for 24 hours under normal cell culture conditions. All cells were irradiated with 18 Gy (5 Gy/min for 3.6 min). Comet slides were reviewed under a 20× objective on an epifluorescence microscope equipped with: Hg arc lamp; 580 nm dichroic mirror; and 535 nm excitation and 645 nm emission filters suitable for visualising of propidium iodide staining with a minimum of 50 Comet images acquired per treatment condition. The Olive Tail Moment (OTM) was determined as the product of the tail length and the fraction of total DNA in the tail as recorded by Komet 6 software (Andor Technology, Belfast, UK) and the percentage reduction in OTM calculated according to the formula:
(§6) % decrease in tail moment=[1−(TMdi−TMcu)/(TMci−TMcu)]*100 • [TMdi=Tail Moment drug irradiated; TMcu=TM control un-irradiated; TMci=TM control irradiated]
(§7) The results are shown in FIG. 18 for the ADCR line and FIG. 19 for the PBDR line.

Karpas ADCr cells [5] = experiment: DNA interstrand cross-linking, comet assay; assay type: cell-based, human; conditions: 130 μM ADCT-301 or 280 μM SG3199 (figure legends: pM) for 2 hours, then 24 hours
Method: as §5, §6, §7

Karpas PBDr cells [6] = experiment: DNA interstrand cross-linking, comet assay; assay type: cell-based, human; conditions: 130 μM ADCT-301 or 280 μM SG3199 (figure legends: pM) for 2 hours, then 24 hours
Method: as §5, §6, §7

Karpas-299 wt cells [7] = experiment: Single dose 2-hour exposure cytotoxicity (MTS); assay type: cell-based, human; conditions: 130 pM ADCT-301 or 280 pM SG3199 for 2 hours, then 96 hours, vs untreated control
Karpas ADCr cells [8] = experiment: Single dose 2-hour exposure cytotoxicity (MTS); assay type: cell-based, human; conditions: 130 pM ADCT-301 or 280 μM SG3199 (legend: pM) for 2 hours, then 96 hours
Method: (§8) To investigate growth inhibition under the same conditions under which DNA ICL formation was measured, Karpas-ADCR cells were treated with 130 pM ADCT-301, and Karpas-PBDR cells treated with 280 pM SG3199 for 2 hours, then washed and incubated for 96 hours under normal cell culture conditions. The MTS assay and calculation of % growth compared to the untreated control was carried out as previously described.
(§9) To investigate whether the cross-resistance in ICL formation observed in the Karpas resistant cell lines also correlates with growth inhibition at this dose, ADCR cells were treated with 280 μM SG3199, and PBDR cells treated with 130 μM ADCT-301 for 2 hours, then washed and incubated for 96 hours under normal cell culture conditions. The MTS assay and calculation of % growth compared to the untreated control was carried out as previously described. The results are shown in FIG. 22 for the ADCR line and FIG. 23 for the PBDR line.

Karpas PBDr cells [9] = experiment: Single dose 2-hour exposure cytotoxicity (MTS); assay type: cell-based, human; conditions: 130 μM ADCT-301 (legend: pM) or 280 pM SG3199 for 2 hours, then 96 hours
Method: as §8, §9

NCI-N87 wt cells [10] = experiment: Single dose 2-hour exposure cytotoxicity (MTS); assay type: cell-based, human; conditions: single dose for 2 hours, then 144 hours, vs untreated control
NCI-N87 ADCr cells = experiment: Single dose 2-hour exposure cytotoxicity (MTS); assay type: cell-based, human; conditions: 1 nM ADCT-502 or 1 nM SG3199 for 2 hours, then 144 hours
Method: as §8, with “NCI-N87-ADCR” for “Karpas-ADCR”, “1 nM ADCT-502,” for “130 pM ADCT-301,”, “PBDR” for “Karpas-PBDR”, “1.7 nM” for “280 pM”, “144” for “96”
as §9, with “NCI-N87” for “Karpas”, “1 nM” for “280 μM”, “1.7 nM ADCT-502” for “130 μM ADCT-301”, “144” for “96”, “24” for “22”, “25” for “23”

NCI-N87 PBDr cells = experiment: Single dose 2-hour exposure cytotoxicity (MTS); assay type: cell-based, human; conditions: 1.7 nM ADCT-502 or 1.7 nM SG3199 for 2 hours, then 144 hours
Method: as §8, with “NCI-N87-ADCR” for “Karpas-ADCR”, “1 nM ADCT-502,” for “130 pM ADCT-301,”, “PBDR” for “Karpas-PBDR”, “1.7 nM” for “280 pM”, “144” for “96”
as §9, with “NCI-N87” for “Karpas”, “1 nM” for “280 μM”, “1.7 nM ADCT-502” for “130 μM ADCT-301”, “144” for “96”, “24” for “22”, “25” for “23”

[11] = tested on: human tumor cell lines expressing MDR1; conditions: cited from earlier work

Structure (SMILES): COc1cc2c(cc1OCCCCCOc1cc3c(cc1OC)C(=O)N1C=C(C)C[C@H]1C=N3)N=C[C@@H]1CC(C)=CN1C2=O [SG3199]
- fold resistance compared to wildtype ([1]; Karpas ADCr vs Karpas wt IC50): 4.4 fold
- IC50 ([1]; read-out: IC50 pM, Karpas ADCr, 96 h continuous exposure, mean): 306 pM
- fold resistance compared to wildtype ([2]; Karpas PBDr vs Karpas wt IC50): 2.9 fold
- IC50 ([2]; read-out: IC50 pM, Karpas PBDr, 96 h continuous exposure, mean): 205 pM
- pIC50 (NCI-N87 wt cells [3]): 10.80
- % red. OTM (mean % reduction in Olive Tail Moment) (Karpas-299 wt cells [4]): 55.5%
- % red. OTM (Karpas ADCr cells [5]): 7.2%
- % red. OTM (Karpas PBDr cells [6]): 25.7%
- 2 hr mean % growth (Karpas-299 wt cells [7]): 33.8%
- 2 hr mean % growth (Karpas ADCr cells [8]): 86.3%
- 2 hr mean % growth (Karpas PBDr cells [9]): 78.5%
- 2 hr mean % growth (NCI-N87 wt cells [10]): 29.0%
- 2 hr mean % growth (NCI-N87 ADCr cells): 57.2%
- 2 hr mean % growth (NCI-N87 PBDr cells): 76.6%
- susceptibility to multidrug resistance mechanisms [11]: susceptible to multidrug resistance mechanisms
